Values of other authors, collected in patent publication EP0965341A2 (priority 1998, dated 1999).

Tested on: Atrial Fibrillation-Induced Electrical Remodeling
Details: pretreatment before AF; conclusion quoted from Circulation vol. 96, No.5, Sept. 1997

CCN(CC)CCNC(=O)c1ccc(N)cc1 [procainamide]
acute, AF-induced changes in atrial electrophysiological properties: not
